Assay results: publication PMC10113214 (Scientific Reports, 2023)
“Also recorded” adds a separate entry of the source.

Legend:
[1] = Circular dichroism, conformation and thermal stability of β-sheet; type: physicochemical
Method: The molar ellipticity of peptides were registered on a Jasco J-815 spectrometer (JASCO, Easton, MD, USA). Solutions of peptide hybrids were prepared in water solution (10 mg/ml), incubated at 37 °C for 4 h and then diluted to a final concentration of 0.20 mg/ml. CD spectra measurements were performed at 25 °C, 30 °C, 35 °C, 40 °C, 45 °C, 50 °C, 55 °C and 60 °C, at 190–260 nm wavelength and at a scan speed of […]. The background of the solvent was subtracted. The results are presented as the relationship of mean residue molar ellipticity (MRME) [deg × cm^2 × dmol^−1] to wavelength [nm]. Measurements were performed in triplicate. In order to determine the peptides’ denaturation temperatures, the molar ellipticity rotatory angle at a fixed wavelength of 196 nm, [θ]196, was measured as a function of temperature (max 100 °C). CD temperature measurements were carried out up to a temperature of 100 °C. Above this temperature, the cure was extrapolated with GraphPad Prism 8 software using the 4PL curve fit function. The denaturation temperature was determined as the temperature at which the change in ellipticity (θ) was half complete.

Rheology of hydrogels = type: physicochemical; conditions: 1% hydrogel, 37 °C
Method: Rheological parameters of the hydrogels were identified using an MCR 302 rheometer (Anton Paar GmbH, Graz, Austria). The rheometer was equipped with a CP50-1 stainless steel cone-and-plate system of 50 mm diameter, 1° cone angle and 50 µm cone truncation and a Peltier controlled temperature unit. An aliquot of 900 µL of 1% hydrogel was applied to a plate cone. The linear viscoelastic (LVE) region was determined through an amplitude sweeps: shear strain (0.01–100% at 6 rad s^−1) and shear stress (0.001–10 Pa at 6.28 rad s^−1). Frequency sweep were measured from 0.01 to 100 rad s^−1 at 2.5% strain. The frequency dependence of the storage modulus (G’) and loss modulus (G”) of the hydrogels were measured at 37 °C. All experiments were carried out in triplicate and reported as the mean of three repeats.

dorsal skin wounds = assay: Histological evaluation of skin samples; type: in vivo, BALB/c mice; conditions: Masson’s trichrome
Description: Mice were sacrificed on day 18 post-injury. In addition, for investigation of early wound healing, 1 mouse from each group was sacrificed on day 4 post-injury. The skin samples were collected and stored in formalin. Skin samples embedded in paraffin were cut into 5 µm sections following staining with Masson’s trichrome (green: collagen, dermis; grey or dark grey: cell nuclei, epidermis, sebaceous glands; dark red: keratinized epidermis, muscle, hair; light red: red blood cells). Image acquisitions were made with a Leica DM IL microscope. To evaluate the collagen density in dorsal skin wounds, we employed the method of colour deconvolution described by Ruifrok and Johnston[52]. Using the ImageJ software with a colour deconvolution plug-in[53], we analyzed between 7 and 9 images of dorsal skin samples stained with Masson’ trichrome, representing 2–3 mice per group. The results are presented as mean relative collagen density.

[2] = Transmission electron microscopy of nanofibres; type: physicochemical; conditions: 1% gel in PBS diluted to 0.001%, uranyl acetate stain
Method: 1% gel solutions were prepared and incubated in PBS. The samples were then diluted to 0.001% concentration. A drop of solution was applied to a microcellulose membrane and stained with a 1.5% solution of uranyl acetate. The images were registered on a Tecnai Spirit BioTwin FEI Transmission Electron Microscope operating at 120 kV.

[3] = molecular target: T1, Human neutrophil elastase (Homo sapiens, UniProt P08246); assay: Elastase enzymatic cleavage; type: in vitro ADME; conditions: human neutrophil elastase 150 nM, peptide 1 mM, 30 min, 37 °C
T1 construct: purchased Sigma-Aldrich
T1 sequence (P08246 30-267): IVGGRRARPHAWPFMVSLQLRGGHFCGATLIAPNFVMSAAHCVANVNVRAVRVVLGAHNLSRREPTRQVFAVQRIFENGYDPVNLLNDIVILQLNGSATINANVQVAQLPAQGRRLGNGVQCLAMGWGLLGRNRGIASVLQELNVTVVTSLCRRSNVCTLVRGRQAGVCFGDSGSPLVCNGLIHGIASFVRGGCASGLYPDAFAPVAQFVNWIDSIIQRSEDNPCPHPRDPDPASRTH
Method: Human neutrophil elastase (EC No. 3.4.21.37, Sigma-Aldrich) was used to study peptide susceptibility to that enzyme. Peptides were dissolved in 0.1 M Tris HCl, 500 mM NaCl, 0.05% Triton X-100, 20 mM CaCl2 pH 7.5 buffer mixture. Peptides (final concentration 1 mM) were mixed with the enzyme (final concentration 150 nM) and incubated for 30 min. in a thermoshaker (37 °C, 300 rpm). The reaction was stopped by a 10% aqueous solution of TFA. The results were analyzed using HPLC and MALDI or LC–MS. Details of this experiment are described in the Supplementary Data.

[4] = system: full-thickness excisional dorsal skin wounds; assay: Skin wound healing model in mice; type: in vivo, BALB/c mice; conditions: BALB/c female mice, 6.0 mm punch dorsal wounds, 10 µL 1% hydrogel topically daily for five days; n = 6, SD
Method: Eight to ten-week-old BALB/c female mice were used for these experiments. All experimental procedures were approved by the Local Ethics Committee for Animal Experimentation in Bydgoszcz, Poland (Approval No. 49/2016). The study was conducted in compliance with the ARRIVE gudidelines. All animal handling methods were carried out in accordance with European Union Commission Recommendation of 18 June 2007 on guidelines for the accommodation and care of animals used for experimental and other scientific purposes. Before experiments, mice were randomized and divided into groups comprising six individuals. The mice were anaesthetized with inhaled 2–5% isoflurane. The skin on the dorsum was shaved and disinfected. After the skin was folded and raised cranially and caudally along the spine, the mouse was placed in a lateral position, and the folded skin was pierced with a 6.0 mm biopsy punch to make two through-and-through symmetrical wounds. Next, 10 µL of peptide hybrid hydrogel was applied onto each wound. Every gel was prepared in sterile conditions in biological safety cabinet, using sterile water to final concentration of 10 mg/ml (1%). Then the gels were incubated for 24 h allowing it to assemble. Control mice were treated with RADA16-I. The wounds were covered with a transparent Tegaderm TM dressing to protect the wound from outer environment of the cage and other animals. It was fastened with an adhesive plaster wrapped around the animal’s torso. The peptide hybrids were applied daily to the wounds for five consecutive days. The dressings were replaced daily in the first five days of the experiment and every second day until the end of the second week of the experiment. To measure the wound areas the wounds were photographed with a ruler placed next to the injury site. Wound areas were calculated using the computer-assisted image analysis program ImageJ[51].

[5] = system: Human neutrophil elastase (EC No. 3.4.21.37, Sigma-Aldrich); assay: Human neutrophil elastase (final concentration 150 nM) in 0.1 M Tris HCl, 500 mM NaCl, 0.05% Triton X-100, 20 mM CaCl2 pH 7.5 buffer mixture; conditions: 37 °C, up to 30 min.

Molecule: CC(=O)N[C@@H](CCCNC(=N)N)C(=O)N[C@@H](C)C(=O)N[C@@H](CC(=O)O)C(=O)N[C@@H](C)C(=O)N[C@@H](CCCNC(=N)N)C(=O)N[C@@H](C)C(=O)N[C@@H](CC(=O)O)C(=O)N[C@@H](C)C(=O)N[C@@H](CCCNC(=N)N)C(=O)N[C@@H](C)C(=O)N[C@@H](CC(=O)O)C(=O)N[C@@H](C)C(=O)N[C@@H](CCCNC(=N)N)C(=O)N[C@@H](C)C(=O)N[C@@H](CC(=O)O)C(=O)N[C@@H](C)C(N)=O [RADA16-I, Ac-(Arg-Ala-Asp-Ala)4-NH2]
- heat stability of β-sheet structure (rank) ([1]; CD scans at different temperatures): lowest stability of β-sheet structure

Molecule: CC(=O)N[C@@H](CCCNC(=N)N)C(=O)N[C@@H](C)C(=O)N[C@@H](CC(=O)O)C(=O)N[C@@H](C)C(=O)N[C@@H](CCCNC(=N)N)C(=O)N[C@@H](C)C(=O)N[C@@H](CC(=O)O)C(=O)N[C@@H](C)C(=O)N[C@@H](CCCNC(=N)N)C(=O)N[C@@H](C)C(=O)N[C@@H](CC(=O)O)C(=O)N[C@@H](C)C(=O)N[C@@H](CCCNC(=N)N)C(=O)N[C@@H](C)C(=O)N[C@@H](CC(=O)O)C(=O)N[C@@H](C)C(=O)NCC(=O)NCC(=O)NCC(=O)N[C@@H](C)C(=O)N[C@@H](C)C(=O)N1CCC[C@H]1C(=O)N[C@H](C(=O)NCC(=O)NCC(=O)NCC(=O)N[C@@H](CCCNC(=N)N)C(=O)N[C@@H](CC(=O)O)C(=O)N[C@@H](CCCCN)C(=O)N[C@H](C(=O)N[C@@H](Cc1ccc(O)cc1)C(=O)N[C@@H](CCCNC(=N)N)C(N)=O)C(C)C)C(C)C [RADA-IM, Ac-(Arg-Ala-Asp-Ala)4-Gly-Gly-Gly-Ala-Ala-Pro-Val-Gly-Gly-Gly-Arg-Asp-Lys-Val-Tyr-Arg-NH2]
- magnitude of G’ compared with other gels (Rheology of hydrogels; cone-plate, frequency sweep, mean of three repeats): around one-tenth of these values
- shear strain above which the gel behaves like a liquid (G” > G’) (Rheology of hydrogels; strain sweep, ω = 6.28 rad/s): above 30%
- collagen density on day 18 post-injury (dorsal skin wounds; colour deconvolution, 7–9 images, 2–3 mice per group): statistically significant lower collagen density than the RADA16-I sample
- hair follicles in wound area on day 18 (dorsal skin wounds; day 18 post-injury): many hair follicles could be observed
- epithelium (membrane-like structure) thickness on day 4 post-injury (dorsal skin wounds; versus RADA16-I group, Mann–Whitney U test): significantly thicker epithelium
- fibre thickness (TEM) [2]: 6–8 nm
- temperature of first disruption of the β-sheets ([1]; CD, [θ]196 nm as function of temperature 4–100 °C, gel 10 mg/ml in water, 37 °C 4 h, diluted to 0.20 mg/ml, decrease of molar ellipticity): ~52 °C
- transition temperature (half β-conformation, half disordered) ([1]; CD, [θ]196 nm vs temperature, 0.20 mg/ml in water, above 100 °C curve extrapolated, 4PL fit): 95 °C
- identified fragments of peptides after elastase digestion (most abundant MS signals) ([3]; 300 rpm, 0.1 M Tris HCl, 500 mM NaCl, 0.05% Triton X-100, 20 mM CaCl2 pH 7.5, HPLC and MALDI or LC-MS, fragment Ac-(RADA)4-GGG-AAPV-COOH): Ac-(RADA)4-GGG-AAPV-COOH
- main / predominant fragments of elastase digestion ([3]; pH 7.5 buffer, HPLC, mass spectrometry): Gly^24Gly^25Gly^26Arg^27Asp^28Lys^29Val^30Tyr^31Arg^32
- wound closure on day 7 [4]: 16.2 ± 21.1%

Molecule: Ac-(Arg-Ala-Asp-Ala)4-Gly-Gly-Gly-Ala-Ala-Pro-Val-Gly-Gly-Gly-Arg-Asp-Lys-Val-Tyr-Arg-NH2
- cleaved bond [5]: Val23-Gly24, major; also recorded: Gly24-Gly25, major

Molecule: Ac-(Arg-Ala-Asp-Ala)4-Gly-Gly-Gly-Ala-Ala-Pro-Val-Gly-Gly-Gly-His-Lys-NH2
- cleaved bond [5]: Val23-Gly24; also recorded: Gly25-Gly26, major

Molecule: Ac-(Arg-Ala-Asp-Ala)4-Gly-Gly-Gly-Ala-Ala-Pro-Val-Gly-Gly-Gly-Lys-Gly-His-Lys-NH2
- cleaved bond [5]: Val23-Gly24; also recorded: Ala21-Pro22, major; also recorded: Ala20-Ala21, major
